{
  "source": "paper PMC8765251",
  "about": "“Orally administered intelligent self-ablating nanoparticles: a new approach to improve drug cellular uptake and intestinal absorption” (Drug Delivery, 2022)",
  "test": "Pharmacokinetic study",
  "format": "in vivo",
  "conditions": "SD rats; for AUC: serum liraglutide by ELISA, n = 5/group, mean ± SD",
  "description": "SD rats (GemPharmatech Co., Ltd.) weighing 200–220 g were fasted overnight and randomly divided into five groups(n = 5/group): […] The first four groups were administered orally. After a single administration, blood was collected and centrifuged, and serum was collected. An ELISA Kit for liraglutide was used to measure the blood concentration of liraglutide. The assay was performed according to the instructions of the ELISA Kit for liraglutide. The processed samples were tested using a microplate reader (CYT5MV microplate reader, BioTek USA Botten Instruments Co., Ltd.), and the drug concentration was calculated by plotting the curve.",
  "note": "Read-outs that look alike come from different tables or passages of the source.",
  "data": [
    {"smiles": "CCCCCCCCCCCCCCCC(=O)N[C@@H](CCC(=O)NCCCC[C@H](NC(=O)[C@H](C)NC(=O)[C@H](C)NC(=O)[C@H](CCC(N)=O)NC(=O)CNC(=O)[C@H](CCC(=O)O)NC(=O)[C@H](CC(C)C)NC(=O)[C@H](Cc1ccc(O)cc1)NC(=O)[C@H](CO)NC(=O)[C@H](CO)NC(=O)[C@@H](NC(=O)[C@H](CC(=O)O)NC(=O)[C@H](CO)NC(=O)[C@@H](NC(=O)[C@H](Cc1ccccc1)NC(=O)[C@@H](NC(=O)CNC(=O)[C@H](CCC(=O)O)NC(=O)[C@H](C)NC(=O)[C@@H](N)Cc1cnc[nH]1)[C@@H](C)O)[C@@H](C)O)C(C)C)C(=O)N[C@@H](CCC(=O)O)C(=O)N[C@@H](Cc1ccccc1)C(=O)N[C@H](C(=O)N[C@@H](C)C(=O)N[C@@H](Cc1c[nH]c2ccccc12)C(=O)N[C@@H](CC(C)C)C(=O)N[C@H](C(=O)N[C@@H](CCCNC(=N)N)C(=O)NCC(=O)N[C@@H](CCCNC(=N)N)C(=O)NCC(=O)O)C(C)C)[C@@H](C)CC)C(=O)O", "note": "[liraglutide]", "values": [
      {"measurement": "BR (relative bioavailability)", "setting": "oral (i.g.) versus subcutaneous liraglutide, dose-normalised AUC", "result": 5.37, "unit": "%"},
      {"measurement": "AUC", "setting": "single oral administration", "result": "1.06118 ± 0.05655", "unit": "ng·h/mL"},
      {"measurement": "BR (relative bioavailability)", "setting": "subcutaneous injection, the reference", "result": 100, "unit": "%"},
      {"measurement": "AUC", "setting": "Sprague-Dawley, rat, sc, single subcutaneous injection, read-out: AUC", "result": "1.98 ± 0.109", "unit": "ng·h/mL"}
    ]}
  ]
}
